According to US20240197852A1, “PSORALEN-I[…] G[…] AND METHODS THEREOF” (Wake Forest University Health Sciences, priority 2021, published 2024):

How the values were obtained:
E. coli strain H10407 [1] = assay: 8-MOP and UVA crosslinking of E. coli, overnight growth in LB broth; format: cell-based; details: 50, 60, 70, or 80 μg/ml 8-MOP; 1 Joule/cm^2 or 7 Joules/cm^2 UVA
Experimental: (§1) Early experiments on the effects of different doses of 8-MOP, AMT, and of UV on bacterial cells were done in E. coli strain H10407 due to its relative ease and speed of growth. H10407 was diluted 1:500 in LB and grown for 5 hours at 37 °C in a shaker. Psoralen inactivation was performed as described for GC. Bacterial cells were washed and inoculated into LB broth or plated onto LB agar to measure overnight growth as an indication of the presence of residual CFU.
Inactivation of E. coli with AMT+UVA light: Other labs had previously reported the use of the psoralen derivatives 8-MOP or S-59/psoralen and UVA light to inactivate bacterial cultures containing DNA repair mutations. In order to determine if a bacterial culture not containing a DNA repair mutation with 8-MOP and UVA crosslinking could be inactivated, E. coli strain H10407 was used. Multiple separate cultures of this strain were treated with 50, 60, 70, or 80 μg/ml 8-MOP and treated with 1 Joule/cm^2 or 7 Joules/cm^2 UVA light and then diluted into LB broth and grown overnight. If even one cell in each culture survived the treatment with 8-MOP and UVA, it was expected to see growth in the overnight culture. Control cultures that received UVA but no 8-MOP, 8-MOP but no UVA, and no UVA or 8-MOP were also included. Heat killed cultures were diluted and grown overnight as a negative control.

E. coli strain H10407 [2] = assay: AMT and UVA crosslinking of E. coli (one round), overnight growth in LB broth; format: cell-based
Experimental: (§2) Psoralen Inactivation: GC strains were grown overnight on GC agar plates. Overnight growth (between 16 and 18 hours) was resuspended in 5 mls of GCP and OD600 was adjusted to 1.0. Cells were diluted 2:25 in 5 mls GCP supplemented with sodium bicarbonate and Isovitalex and grown at 37 °C in the shaker for 7 hours at which time AMT was added and the cultures were incubated in the shaker for another hour. All bacterial cultures were then moved into 6 well cell culture plates and treated with 1 Joule/cm^2 UV light using an Analytik Jena Crosslinker with UVA light source (365 nm) (model #CL-1000L, Upland, CA). Cultures were returned to tubes and a second dose of AMT was added. Cultures were shaken for 1 hour at 37 °C and then crosslinked again at the same UV dose. Samples were washed in PBS and then plated on GC agar and incubated for two days at 37 °C and 5% CO2 to measure growth as an indication of the presence of residual CFU.
as §1
We then used the psoralen derivative 4-aminomethyl-4,5′, 8-trimethylpsoralen (AMT). Multiple separate cultures of the E. coli strain H10407 were treated with doses of psoralen derivative 4-aminomethyl-4,5′, 8-trimethylpsoralen (AMT) ranging from 0 to 60 μg/ml and treated with 1 Joule/cm^2, 7 Joules/cm^2, or 10 Joules/cm^2 UVA light and then diluted into LB broth and grown overnight. […] Control cultures that received no treatment always grew up overnight as did cultures that only received AMT and no UVA or UVA treatment with no AMT. Heat killed cultures never grew up overnight. […] (See Table 1). Cultures that had no growth were left to grow for 3 more days to make sure that no growth came up later.

E. coli strain H10407 [3] = assay: two doses of AMT and two rounds of UVA on E. coli, plating for surviving CFU; format: cell-based; details: for CFUs of treated cells / Percent Survival: 1 Joule/cm^2 two times
Experimental: as §2, §1
The desire was a method to inactivate the culture consistently with AMT. E. coli strain H10407 was treated with AMT and UVA as before, but then immediately retreated the same culture once again with AMT at the same dosage, allowing the culture to shake for 1 hour, and then crosslinking it a second time and plating the cells to see which cultures would still have surviving cells capable of growth. By plating the cells and comparing to the CFUs of an untreated culture we were able to determine a percentage of surviving cells. Multiple cultures were treated at every drug dose. (See Table 2)
Thirty separate 1 ml cultures of H10407 were grown, treated with AMT at a dose of 40 μg/ml two times, and given 1 Joule/cm^2 of UVA two times and allowed to grow overnight on LB plates. […] LB plates were kept for multiple days to ensure there was no later growth.

GC strain FA1090 [4] = assay: one round of AMT and UV light crosslinking of GC, plating, percent cell survival; format: cell-based, Neisseria gonorrhoeae; details: 1 Joule/cm^2
Experimental: as §2
(§3) Evaluating the use of a GC uvrB mutants: In order to examine the effect of a mutation in the uvrB locus that affects DNA repair GC strains FA1090 and its derivatives 1-81-S2 (uvrB:kan #4 Opa+) and 1-81-S2 (uvrB:kan #9) were tested. uvrB mutants have been used by other labs to reduce the amount of 8-MOP or S-59 needed to inactivate bacterial cells and to therefore leave them with higher metabolic activity (KBMA). FA1090 and mutant strains were treated with varying doses of AMT, grown for one hour at 37 °C, and then irradiated with UVA at 1 Joule/cm^2. The entire culture was washed and plated onto a single plate. Surviving colonies were counted and compared to live cultures to determine percent cell survival. Multiple cultures of each strain were tested at each dosage level. (see Table 3).

[5] = test system: FA1090 uvrB mutant strain 1-81-S2 (uvrB:kan #4 Opa+); assay: one round of AMT and UV light crosslinking of GC uvrB mutant, plating, percent cell survival; format: cell-based, Neisseria gonorrhoeae; details: 1 Joule/cm^2
Experimental: as §2, §3

[6] = test system: FA1090 uvrB mutant strain 1-81-S2 (uvrB:kan #9); assay: as above; format: cell-based, Neisseria gonorrhoeae; details: 1 Joule/cm^2
Experimental: as §2, §3

GC strain FA1090 [7] = assay: two rounds of AMT and UVA on GC, plating on GC agar for survivors; format: cell-based, Neisseria gonorrhoeae; details: thirty 1 ml cultures, approximately 3×10^10 cells; 20 μg/ml AMT and 1 Joule/cm^2 UVA two times
Experimental: as §2
To get consistent inactivation of GC we treated FA1090 with two rounds of AMT and UVA. Thirty separate 1 ml cultures of FA1090 were given 20 μg/ml AMT and irradiated with 1 Joule/cm^2 UVA two times and plated onto 30 GC agar plates and grown for two days.

SMILES: COc1c2occc2cc2ccc(=O)oc12 [8-MOP, 8-methoxypsoralen]
- inactivation of cultures (overnight growth) (E. coli strain H10407 [1]): not inactivated

SMILES: Cc1oc2c(C)c3oc(=O)cc(C)c3cc2c1CN [AMT, 4-aminomethyl-4,5′, 8-trimethylpsoralen]
- Percentage of cultures inactivated (E. coli strain H10407 [2]; AMT 20 ug/ml, 1 Joule/cm^2): 0%
- number of cultures inactivated (no overnight growth) / total cultures treated (E. coli strain H10407 [2]; AMT 20 ug/ml, 1 Joule/cm^2): 0/5
- Percentage of cultures inactivated (E. coli strain H10407 [2]; AMT 20 ug/ml, 7 Joules/cm^2): 67%
- number of cultures inactivated (no overnight growth) / total cultures treated (E. coli strain H10407 [2]; AMT 20 ug/ml, 7 Joules/cm^2): 2/3
- Percentage of cultures inactivated (E. coli strain H10407 [2]; AMT 30 ug/ml, 1 Joule/cm^2): 0%
- number of cultures inactivated (no overnight growth) / total cultures treated (E. coli strain H10407 [2]; AMT 30 ug/ml, 1 Joule/cm^2): 0/5
- Percentage of cultures inactivated (E. coli strain H10407 [2]; AMT 30 ug/ml, 7 Joules/cm^2): 33%
- number of cultures inactivated (no overnight growth) / total cultures treated (E. coli strain H10407 [2]; AMT 30 ug/ml, 7 Joules/cm^2): 1/3
- Percentage of cultures inactivated (E. coli strain H10407 [2]; AMT 40 ug/ml, 1 Joule/cm^2): 60%
- number of cultures inactivated (no overnight growth) / total cultures treated (E. coli strain H10407 [2]; AMT 40 ug/ml, 1 Joule/cm^2): 3/5
- Percentage of cultures inactivated (E. coli strain H10407 [2]; AMT 50 ug/ml, 1 Joule/cm^2): 82%
- number of cultures inactivated (no overnight growth) / total cultures treated (E. coli strain H10407 [2]; AMT 50 ug/ml, 1 Joule/cm^2): 9/11
- Percentage of cultures inactivated (E. coli strain H10407 [2]; AMT 50 ug/ml, 7 Joules/cm^2): 78%
- number of cultures inactivated (no overnight growth) / total cultures treated (E. coli strain H10407 [2]; AMT 50 ug/ml, 7 Joules/cm^2): 7/9
- Percentage of cultures inactivated (E. coli strain H10407 [2]; AMT 50 ug/ml, 10 Joules/cm^2): 80%
- number of cultures inactivated (no overnight growth) / total cultures treated (E. coli strain H10407 [2]; AMT 50 ug/ml, 10 Joules/cm^2): 12/15
- Percentage of cultures inactivated (E. coli strain H10407 [2]; AMT 60 ug/ml, 1 Joule/cm^2): 80%
- number of cultures inactivated (no overnight growth) / total cultures treated (E. coli strain H10407 [2]; AMT 60 ug/ml, 1 Joule/cm^2): 4/5
- inactivation of cultures (overnight growth) (E. coli strain H10407 [2]; AMT up to 60 μg/ml, 1, 7 or 10 Joules/cm^2 UVA, one round): sometimes completely inactivated
- CFUs of treated cells (E. coli strain H10407 [3]; AMT 10 ug/ml two doses): 79
- Percent Survival (E. coli strain H10407 [3]; AMT 10 ug/ml two doses): 2.6 × 10^−6%
- CFUs of treated cells (E. coli strain H10407 [3]; AMT 30 ug/ml two doses): 2
- Percent Survival (E. coli strain H10407 [3]; AMT 30 ug/ml two doses): 5 × 10^−8%
- CFUs of treated cells (E. coli strain H10407 [3]; AMT 35 ug/ml two doses): 55
- Percent Survival (E. coli strain H10407 [3]; AMT 35 ug/ml two doses): 6.1 × 10^−7%
- CFUs of treated cells (E. coli strain H10407 [3]; AMT 40 ug/ml two doses): 0
- Percent Survival (E. coli strain H10407 [3]; AMT 40 ug/ml two doses): 0%
- surviving cells capable of growth (E. coli strain H10407 [3]; thirty 1 ml cultures, approximately 3.7×10^10 cells, 40 μg/ml AMT and 1 Joule/cm^2 UV two times): no cells still capable of growth
- Percent Cell Survival (GC strain FA1090 [4]; AMT 2 ug/ml): 7.85 × 10^−6%
- Percent Cell Survival (GC strain FA1090 [4]; AMT 5 ug/ml): 1.23 × 10^−6%
- Percent Cell Survival (GC strain FA1090 [4]; AMT 7 ug/ml): 0%
- Percent Cell Survival (GC strain FA1090 [4]; AMT 10 ug/ml): 0%
- Percent Cell Survival (GC strain FA1090 [4]; AMT 30 ug/ml): 0%
- Percent Cell Survival (GC strain FA1090 [4]; AMT 50 ug/ml): 0%
- Percent Cell Survival (GC strain FA1090 [4]; AMT 70 ug/ml): 2.56 × 10^−7%
- Percent Cell Survival (GC strain FA1090 [4]; AMT 100 ug/ml): 0%
- Percent Cell Survival ([5]; AMT 2 ug/ml): 5.56 × 10^−8%
- Percent Cell Survival ([5]; AMT 5 ug/ml): 0%
- Percent Cell Survival ([5]; AMT 7 ug/ml): 0%
- Percent Cell Survival ([5]; AMT 10 ug/ml): 0%
- Percent Cell Survival ([5]; AMT 30 ug/ml): 0%
- Percent Cell Survival ([5]; AMT 50 ug/ml): 0%
- Percent Cell Survival ([5]; AMT 70 ug/ml): 1.11 × 10^−6%
- Percent Cell Survival ([5]; AMT 100 ug/ml): 0%
- Percent Cell Survival ([6]; AMT 2 ug/ml): 7.23 × 10^−7%
- Percent Cell Survival ([6]; AMT 5 ug/ml): 4.0 × 10^−7%
- Percent Cell Survival ([6]; AMT 7 ug/ml): 6.3 × 10^−8%
- Percent Cell Survival ([6]; AMT 10 ug/ml): 0%
- Percent Cell Survival ([6]; AMT 30 ug/ml): 0%
- Percent Cell Survival ([6]; AMT 50 ug/ml): 0%
- Percent Cell Survival ([6]; AMT 70 ug/ml): 0%
- Percent Cell Survival ([6]; AMT 100 ug/ml): 0%
- survivors after plating on GC agar, two days (GC strain FA1090 [7]): No survivors were detected
